Laboratory results published in US11458120B2, “Aptamer-drug conjugate and use thereof” (priority 2016, dated 2022).
Non-standard residues stand in square brackets, D forms with d. Residues, ends and D or L forms follow the SMILES beside them. *: point of attachment. Dolaproine = CO[C@@H]([C@@H]1CCCN1)[C@@H](C)C(=O)O; Dil = CC[C@H](C)[C@H](NC)[C@@H](CC(=O)O)OC; X1 = C[C@@H](N*)[C@@H](O)c1ccccc1; NMeV = CN[C@H](C(=O)O)C(C)C

Legend:
[1] = tested on: A549 lung cancer cell line-injected mice; experiment: In vivo therapeutic efficacy on A549 lung cancer cell line-injected mice (FDG PET, tumor size); design: species or system nude mouse; details: i.v. 4 times by 5 day intervals, conjugate 7.5 mg/kg (0.5 mg/kg of MMAE) or MMAE 0.5 mg/kg, 30 days after start of treatment
Procedure: To A549 lung cancer cell line-injected mice, MMAE-(PAB-Cit-Val-MC-S-C6)-T3-AS1411 and MMAE, respectively, were administered by IV injection for 30 days, followed by identifying tumor sizes through PET images. A549 lung cancer cells in a number of 6.1×10^6 cells/ml were injected subcutaneously in the right thigh of each nude mouse. The tumor size was measured in 3 to 4 weeks after the injection and, when a diameter of the tumor reached 0.8 cm, microPET images were captured before treatment. For PET images, F-18 FDG 0.2 mCi was i.p. injected and then the images were captured (Siemens Inveon). After detection of FDG intake in the tumor from the images, MMAE-(PAB-Cit-Val-MC-S-C6)-T3-AS1411 was i.v. injected in an experimental group of 5 mice 4 times by 5 day intervals (7.5 mg/kg, 0.5 mg/kg of MMAE). […]
To A549 lung cancer cell-injected mice, MMAE was administered by IV injection for 30 days, followed by observation of PET images. […] The tumor size was measured in 3 to 4 weeks after the injection and, when a diameter of the tumor reached 0.8 cm, microPET images were captured before treatment. […]
As compared to administration of MMAE alone, it was determined that MMAE-(PAB-Cit-Val-MC-S-C6)-T3-AS1411 inhibits 80% more cancer. After the start of treatment, sizes of tumors were measured in both of horizontal and vertical axes by 5 day intervals. […]

[2] = tested on: Mv4-11 AML cell line-injected mice; experiment: In vivo therapeutic efficacy on Mv4-11 AML cell line-injected mice (FDG PET); design: species or system nude mouse; details: Mv4-11 AML tumor, i.v. 4 times by 5 day intervals, conjugate 7.5 mg/kg or MMAE 0.5 mg/kg, 30 days after start of treatment
Procedure: To Mv4-11 AML cell line-injected mice, citravin-(GLFG-MC-S-C6)-T3-AS1411 and MMAE, respectively, were administered by IV injection for 30 days, followed by identifying tumor sizes through PET images. Mv4-11 AML cells in a number of 6.1×10^6 cells/ml were injected subcutaneously in the right thigh of each nude mouse. The tumor size was measured in 3 to 4 weeks after the injection and, when a diameter of the tumor reached 0.8 cm, microPET images were captured before treatment. For PET images, F-18 FDG 0.2 mCi was i.p. injected and then the images were captured (Siemens Inveon). After detection of FDG intake in the tumor from the images, citravin-(GLFG-MC-S-C6)-T3-AS1411 was i.v. injected in an experimental group of 5 mice 4 times by 5 day intervals (7.5 mg/kg, 0.5 mg/kg of MMAE). After 30 days from the start of treatment, microPET images were captured by the same method as used before treatment (FIG. 13 and FIG. 14).
To Mv4-11 AML cell line-injected mice, MMAE was administered by IV injection for 30 days, followed by observation of PET images. Mv4-11 AML cells in the number of 6.1×10^6 cells/ml were injected subcutaneously in the right thigh of each nude mouse. The tumor size was measured in 3 to 4 weeks after the injection and, when a diameter of the tumor reached 0.8 cm, microPET images were captured before treatment. […]

[3] = reported by the Weihong Tang group, University of Florida; cited from earlier work
[4] = tested on: Mv4-11 cell line; experiment: MTT assay to Mv4-11 cell lines; format: cell-based; details: Mv4-11 cells, 72 hours incubation, absorbance at 490 nm, FIG. 6
Procedure: With regard to Mv4-11 cell line as a […] over-expressing a nucleoline protein, cell inhibition efficacy of citravin-(GLFG-MC-S-C6)-T3-AS1411 was verified in vitro by MTT assay. […] Mv4-11 cells (ATCC, IMDM+10% FBS) were seeded on a 96-well plate in a cell number of 2.5 to 5×10^5 cells/well, which was determined by a cell test method to determine an appropriate cell concentration, followed by growing for 1 day. After heating each of citravin-(GLFG-MC-S-C6)-T3-AS1411 and citravin-(GLFG-MC-S-C6)-T3-CRO at 95° C. for 5 minutes, the heated product was gradually cooled at room temperature and directly treated on each well at different concentrations. After incubating the treated A549 cells in 5% CO2 incubator for 72 hours, the incubated product was treated with 20 μL of a reagent solution for MTT assay (Cell Proliferation kit II, Roche) and incubated for different periods of time (10 min, 30 min, 1 hr). Thereafter, the final product was subjected to measurement of absorbance at 490 nm by an ELISA reader (FIG. 6).

[5] = tested on: A549 cell line; experiment: MTT assay to A549 cell lines; format: cell-based; details: A549 cells, 72 hours incubation, FIG. 17 and FIG. 18
Procedure: With regard to A549 cell line as a lung cancer cell line over-expressing a nucleoline protein, cell inhibition efficacy of MMAE-(PAB-Cit-Val-MC-S-C6)-T3-AS1411 was verified in vitro by MTT assay. […] A549 cells (ATCC, IMDM+10% FBS) were seeded on a 96-well plate in a cell number of 2.5 to 5×10^5 cells/well, which was determined by a cell test method to determine an appropriate cell concentration, followed by growing for 1 day. After heating each of MMAE-(PAB-Cit-Val-MC-S-C6)-T3-AS1411 and MMAE-(PAB-Cit-Val-MC-S-C6)-T3-CRO at 95° C. for 5 minutes, the heated product was gradually cooled at room temperature and directly treated on each well at different concentrations. […] Thereafter, the final product was subjected to measurement of absorbance at 490 nm by an ELISA reader (FIG. 5).
With regard to A549 cell line as a lung cancer cell line over-expressing a nucleoline protein, cell inhibition efficacies of MMAE-(PAB-Cit-Val-MC-S-C6)-T3-AS1411, 12 or 13-(MMAE-PAB-Cit-Val-MC-S-C6)-AS1411 and 12,13-(MMAE-PAB-Cit-Val-MC-S-C6)2-AS1411 were verified in vitro by MTT assay. […] A549 cells (ATCC, IMDM+10% FBS) were seeded on a 96-well plate in a cell number of 2.5 to 5×10^5 cells/well, which was determined by a cell test method to determine an appropriate cell concentration, followed by growing for 1 day. […]

Compound: CC[C@H](C)[C@@H]([C@@H](CC(=O)N1CCC[C@H]1[C@H](OC)[C@@H](C)C(=O)N[C@H](C)[C@@H](O)c1ccccc1)OC)N(C)C(=O)[C@@H](NC(=O)[C@@H](NC)C(C)C)C(C)C [MMAE, monomethyl auristatin E, reference compound] (H-[NMeV]V[Dil][Dolaproine]-X1)
- FDG intake in the tumor from PET images, after vs before treatment [1]: FDG intake in the tumor was increased even after treatment
- FDG intake in the tumor from PET images, after vs before treatment [2]: FDG intake in the tumor was increased even after treatment

Compound: COc1cccc2c1C(=O)c1c(O)c3c(c(O)c1C2=O)C[C@@](O)(C(=O)CO)C[C@@H]3O[C@H]1C[C@H](N)[C@H](O)[C@H](C)O1 [doxorubicin]
- cytotoxic effects [3]: 20%

Compound: citravin-(Gly-Leu-Phe-Gly (SEQ ID NO: 8))-Mal-S-C6-tttggtggtggtggttgtggtggtggtgg [citravin-(GLFG-MC-S-C6)-T3-AS1411]
- FDG intake in the tumor from PET images, after vs before treatment [2]: a decrease in FDG intake in the tumor is observed
- cell inhibition efficacy (cell viability and cell proliferation) by MTT assay, compared with citravin [4]: almost the same efficacy as citravin

Compound: ggtggtggtggu (SEQ ID NO: 4)[5-N-(6-(3-monomethyl auristatin-p-aminobenzoyloxycarbonyl-citrulline-valine-Mal-thiopropanoyl)-aminohexyl)-3-acrylamido]u[5-N-(6-(3-monomethyl auristatin-p-aminobenzoyloxycarbonyl-citrulline-valine-Mal-thiopropanoyl)-aminohexyl)-3-acrylamido]gtggtggtggtgg (DNA GGTGGTGGTGGU; two MMAE-linker conjugates at positions 12,13, chemistry not fully specified) [12,13-(MMAE-PAB-Cit-Val-MC-S-C6)2-AS1411]
- cell inhibition efficacy by MTT assay, comparison between MMAE-linker-aptamer conjugates [5]: superior efficacy over of MMAE-(PAB-Cit-Val-MC-S-C6)-T3-AS1411
